Test results: ChEMBL document CHEMBL1201862, “PubChem BioAssay data set” (2004)
The source made the active and inactive calls.

Key:
[1] = Luminescence Cell-Based Dose Confirmation HTS to Identify Activators of 5'UTR Stem-Loop Driven Alpha-Synuclein mRNA Translation in H4 Neuroglioblastoma Cells. [Related pubchem assays: 1829 (Project Summary), 1814 (Primary HTS)]; assay type: functional
H4 = assay: Luminescence Cell-Based Dose Response HTS to Identify Activators of 5'UTR Stem-Loop Driven Prion Protein mRNA Translation in H4 Neuroglioblastoma Cells. [Related pubchem assays: 1829 (Project Summary), 1814 (Primary HTS)]; assay type: functional; details: Homo sapiens
Caspase-3 [2] = target: T1, Caspase-3 (Homo sapiens, UniProt P42574); assay type: functional
T1 sequence (P42574 whole entry): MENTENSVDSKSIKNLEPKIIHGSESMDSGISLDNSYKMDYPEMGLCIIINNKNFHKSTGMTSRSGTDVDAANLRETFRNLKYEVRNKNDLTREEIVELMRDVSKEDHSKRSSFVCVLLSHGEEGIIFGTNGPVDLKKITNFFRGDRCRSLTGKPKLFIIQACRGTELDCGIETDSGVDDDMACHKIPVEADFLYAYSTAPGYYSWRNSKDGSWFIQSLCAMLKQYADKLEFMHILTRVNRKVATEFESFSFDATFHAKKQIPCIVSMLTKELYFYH

[3] = target: T2, Sentrin-specific protease 7 (Homo sapiens, UniProt Q9BQF6); assay type: functional;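 note: Luminescence-based dose-response confirmation of ultra-high-throughput screening hits, measuring inhibition of SENP7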
T2 sequence (Q9BQF6 whole entry): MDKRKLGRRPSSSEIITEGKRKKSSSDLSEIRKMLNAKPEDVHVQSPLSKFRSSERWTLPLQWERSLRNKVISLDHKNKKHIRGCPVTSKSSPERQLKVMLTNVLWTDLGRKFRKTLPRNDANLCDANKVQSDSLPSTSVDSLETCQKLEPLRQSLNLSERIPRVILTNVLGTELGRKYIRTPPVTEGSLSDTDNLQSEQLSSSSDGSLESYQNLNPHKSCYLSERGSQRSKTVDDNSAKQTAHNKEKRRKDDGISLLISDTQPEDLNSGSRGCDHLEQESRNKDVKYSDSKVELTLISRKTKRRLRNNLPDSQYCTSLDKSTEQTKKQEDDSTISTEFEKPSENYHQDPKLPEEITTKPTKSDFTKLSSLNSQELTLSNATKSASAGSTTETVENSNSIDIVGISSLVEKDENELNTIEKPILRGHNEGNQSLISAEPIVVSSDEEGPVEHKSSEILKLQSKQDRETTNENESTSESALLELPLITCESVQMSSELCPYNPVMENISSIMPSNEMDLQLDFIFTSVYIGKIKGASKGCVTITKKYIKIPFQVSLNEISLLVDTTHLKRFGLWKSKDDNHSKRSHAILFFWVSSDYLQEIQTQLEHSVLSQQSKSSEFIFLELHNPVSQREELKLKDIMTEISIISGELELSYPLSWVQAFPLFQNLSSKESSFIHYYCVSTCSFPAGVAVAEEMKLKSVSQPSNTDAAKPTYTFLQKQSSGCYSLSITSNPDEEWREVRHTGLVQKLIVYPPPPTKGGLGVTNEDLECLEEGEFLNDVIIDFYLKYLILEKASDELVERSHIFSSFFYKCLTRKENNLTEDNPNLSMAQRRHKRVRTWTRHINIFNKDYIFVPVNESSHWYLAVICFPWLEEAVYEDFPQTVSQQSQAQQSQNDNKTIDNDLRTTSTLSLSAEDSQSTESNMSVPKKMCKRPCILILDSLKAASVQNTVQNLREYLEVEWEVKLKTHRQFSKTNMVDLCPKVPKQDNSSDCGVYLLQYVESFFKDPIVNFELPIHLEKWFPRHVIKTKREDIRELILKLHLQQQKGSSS

[4] = target: T3, Sentrin-specific protease 6 (Homo sapiens, UniProt Q9GZR1); assay type: functional
T3 sequence (Q9GZR1 whole entry): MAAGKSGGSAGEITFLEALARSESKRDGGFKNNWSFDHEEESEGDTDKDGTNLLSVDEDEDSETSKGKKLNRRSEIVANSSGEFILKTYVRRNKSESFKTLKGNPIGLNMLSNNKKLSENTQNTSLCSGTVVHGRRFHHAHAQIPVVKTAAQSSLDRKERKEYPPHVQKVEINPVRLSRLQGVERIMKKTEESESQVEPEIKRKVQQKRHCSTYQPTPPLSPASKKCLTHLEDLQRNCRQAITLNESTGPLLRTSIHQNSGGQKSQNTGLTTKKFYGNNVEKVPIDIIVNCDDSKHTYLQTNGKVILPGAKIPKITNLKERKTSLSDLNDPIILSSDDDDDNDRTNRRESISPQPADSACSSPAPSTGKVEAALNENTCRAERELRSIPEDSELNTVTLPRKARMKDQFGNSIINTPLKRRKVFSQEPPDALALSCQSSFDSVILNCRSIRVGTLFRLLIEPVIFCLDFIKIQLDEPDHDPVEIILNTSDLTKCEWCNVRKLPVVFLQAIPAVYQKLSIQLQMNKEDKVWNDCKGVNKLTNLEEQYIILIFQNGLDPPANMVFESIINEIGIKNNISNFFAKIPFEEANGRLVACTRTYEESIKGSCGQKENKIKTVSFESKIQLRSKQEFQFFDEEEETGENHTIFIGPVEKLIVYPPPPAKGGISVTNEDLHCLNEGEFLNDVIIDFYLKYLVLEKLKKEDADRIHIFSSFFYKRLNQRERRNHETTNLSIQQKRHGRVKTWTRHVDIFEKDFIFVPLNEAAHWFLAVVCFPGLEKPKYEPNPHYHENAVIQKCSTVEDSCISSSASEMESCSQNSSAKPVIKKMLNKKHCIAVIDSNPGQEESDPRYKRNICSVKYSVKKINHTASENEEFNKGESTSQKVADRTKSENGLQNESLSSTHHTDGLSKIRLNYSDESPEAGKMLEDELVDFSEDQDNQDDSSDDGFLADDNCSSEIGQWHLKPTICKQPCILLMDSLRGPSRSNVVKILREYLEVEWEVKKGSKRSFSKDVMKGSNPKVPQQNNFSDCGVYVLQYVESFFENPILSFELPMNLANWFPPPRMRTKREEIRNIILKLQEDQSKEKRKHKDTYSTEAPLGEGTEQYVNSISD

[5] = target: T4, Sentrin-specific protease 8 (Homo sapiens, UniProt Q96LD8); assay type: functional;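 note: luminescence read-out of SENP8 inhibition, dose-response confirmation following an ultra-high-throughput screen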
T4 sequence (Q96LD8 whole entry): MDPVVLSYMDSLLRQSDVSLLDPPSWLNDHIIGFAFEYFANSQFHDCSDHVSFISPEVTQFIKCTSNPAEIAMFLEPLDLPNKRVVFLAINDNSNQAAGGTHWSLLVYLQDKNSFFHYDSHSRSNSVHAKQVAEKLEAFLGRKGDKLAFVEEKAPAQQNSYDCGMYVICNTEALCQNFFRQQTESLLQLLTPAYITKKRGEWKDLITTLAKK

[6] = target: T4, Sentrin-specific protease 8; assay: SENP8 protease inhibitors, SAR follow-up, biochemical, luminescence (AID 504501); assay type: functional
Caspase-3 [7] = target: T1, Caspase-3; assay: SAR Analysis of small molecule inhibitors of Sentrin-specific proteases (SENPs) using a Caspase-3 Selectivity assay. [Related pubchem assays (depositor defined):AID2540, AID2599, AID434973, AID489001]; assay type: functional
[8] = target: T3, Sentrin-specific protease 6; assay: SAR Analysis of small molecule inhibitors of Sentrin-specific protease 6 (SENP6) using a Luminescent assay. [Related pubchem assays (depositor defined):AID2582, AID2599]; assay type: functional
[9] = target: T2, Sentrin-specific protease 7; assay: SENP7 protease inhibitors, SAR follow-up, biochemical, luminescence (AID 504497); assay type: functional
Aminopeptidase N = target: T5, Aminopeptidase N (Plasmodium falciparum FcB1/Columbia, UniProt O96935); assay: P. falciparum M1AAP inhibitors, biochemical, fluorogenic H-Leu-NHMec substrate, 1536-well (AID 1445); design: species or system Plasmodium falciparum 3D7, 3D7
T5 sequence (O96935 whole entry): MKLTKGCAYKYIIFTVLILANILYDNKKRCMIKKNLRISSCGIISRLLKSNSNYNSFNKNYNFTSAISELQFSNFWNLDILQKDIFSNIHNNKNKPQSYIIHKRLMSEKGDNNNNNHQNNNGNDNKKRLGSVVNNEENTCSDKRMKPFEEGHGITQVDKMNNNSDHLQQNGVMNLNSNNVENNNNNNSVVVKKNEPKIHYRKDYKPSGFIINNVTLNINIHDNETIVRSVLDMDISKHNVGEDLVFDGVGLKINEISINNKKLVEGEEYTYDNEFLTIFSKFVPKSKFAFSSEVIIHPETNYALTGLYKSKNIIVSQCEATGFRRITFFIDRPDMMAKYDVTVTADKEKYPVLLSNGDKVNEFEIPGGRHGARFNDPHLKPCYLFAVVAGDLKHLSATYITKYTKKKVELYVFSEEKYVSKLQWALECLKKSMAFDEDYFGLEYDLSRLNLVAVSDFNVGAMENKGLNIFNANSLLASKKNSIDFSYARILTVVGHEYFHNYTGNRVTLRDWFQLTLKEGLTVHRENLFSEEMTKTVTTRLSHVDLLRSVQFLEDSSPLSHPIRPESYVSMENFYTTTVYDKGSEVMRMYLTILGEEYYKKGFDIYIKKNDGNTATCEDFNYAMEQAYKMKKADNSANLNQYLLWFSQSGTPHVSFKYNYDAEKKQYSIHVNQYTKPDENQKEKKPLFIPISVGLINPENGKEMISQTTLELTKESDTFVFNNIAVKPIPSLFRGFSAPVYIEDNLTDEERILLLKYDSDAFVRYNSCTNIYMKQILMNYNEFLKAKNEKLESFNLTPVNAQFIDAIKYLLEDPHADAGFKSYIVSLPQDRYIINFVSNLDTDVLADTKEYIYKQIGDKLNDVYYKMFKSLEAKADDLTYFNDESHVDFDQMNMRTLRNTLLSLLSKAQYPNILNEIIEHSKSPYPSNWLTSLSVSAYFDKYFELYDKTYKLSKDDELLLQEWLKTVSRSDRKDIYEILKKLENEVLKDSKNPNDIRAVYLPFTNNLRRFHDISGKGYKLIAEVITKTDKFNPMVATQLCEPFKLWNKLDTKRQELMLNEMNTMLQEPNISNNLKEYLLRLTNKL

[10] = tested on: Streptococcus sp. 'group A'; assay: growth inhibition of control SK(-) GAS strain, dose response, counter-screen for streptokinase expression inhibitor project, luminescence, kanamycin, BacTiterGlo, confirmation (AID 1900); assay type: functional, organism-based
Streptokinase A = target: T6, Streptokinase A (Streptococcus pyogenes serotype M1, UniProt P10520); assay: S. pyogenes streptokinase expression inhibitors, potency, dose response, plasminogen activation absorbance, OD405 (AID 1914); assay type: functional, Streptococcus pyogenes M1 GAS;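 note: secreted streptokinase activity via plasminogen activation per viability signal from cell pellet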
T6 sequence (P10520 whole entry): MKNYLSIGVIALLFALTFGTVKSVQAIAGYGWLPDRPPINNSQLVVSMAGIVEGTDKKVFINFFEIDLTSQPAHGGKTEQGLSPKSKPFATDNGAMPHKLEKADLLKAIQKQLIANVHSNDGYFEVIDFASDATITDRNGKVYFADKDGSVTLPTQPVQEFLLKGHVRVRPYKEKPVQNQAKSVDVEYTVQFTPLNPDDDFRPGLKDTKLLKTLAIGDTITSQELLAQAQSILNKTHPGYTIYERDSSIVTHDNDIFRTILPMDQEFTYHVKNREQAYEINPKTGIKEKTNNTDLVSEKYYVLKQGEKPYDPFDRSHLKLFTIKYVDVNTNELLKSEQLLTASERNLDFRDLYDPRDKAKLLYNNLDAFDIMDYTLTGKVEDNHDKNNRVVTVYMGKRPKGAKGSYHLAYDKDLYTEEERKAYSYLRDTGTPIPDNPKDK

Streptococcus = assay: Group A Streptococcus viability loss, dose response, counter-screen for streptokinase expression inhibitor project, luminescence, BacTiterGlo (AID 1915); assay type: functional, organism-based;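 note: potency for reduction of bacterial viability or growth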
[11] = target: T7, High affinity choline transporter 1 (Homo sapiens, UniProt Q9GZV3); assay: CHT inhibitors, dose response, cell-based, 5-point CRC, membrane potential dye (AID 504840); assay type: functional
T7 sequence (Q9GZV3 whole entry): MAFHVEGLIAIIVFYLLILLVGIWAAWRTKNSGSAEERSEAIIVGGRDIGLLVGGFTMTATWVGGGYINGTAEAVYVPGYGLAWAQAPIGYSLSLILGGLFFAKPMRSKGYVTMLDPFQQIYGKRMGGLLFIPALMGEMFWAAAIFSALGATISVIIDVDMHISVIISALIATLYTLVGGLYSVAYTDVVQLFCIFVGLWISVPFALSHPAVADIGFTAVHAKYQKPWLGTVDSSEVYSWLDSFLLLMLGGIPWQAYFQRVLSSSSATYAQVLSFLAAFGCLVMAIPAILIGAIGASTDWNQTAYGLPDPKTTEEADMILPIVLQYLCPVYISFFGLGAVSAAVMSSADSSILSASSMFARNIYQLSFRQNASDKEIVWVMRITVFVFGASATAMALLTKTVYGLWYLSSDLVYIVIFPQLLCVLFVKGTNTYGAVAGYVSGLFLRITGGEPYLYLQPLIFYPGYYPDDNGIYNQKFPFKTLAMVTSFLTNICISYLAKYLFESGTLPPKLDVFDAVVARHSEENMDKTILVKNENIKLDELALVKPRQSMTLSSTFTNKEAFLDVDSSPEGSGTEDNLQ

[12] = target: T7, High affinity choline transporter 1; assay: CHT inhibitors, dose response, cell-based, 10-point CRC, membrane potential dye (AID 588401); assay type: functional;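 note: membrane potential dye fluorescence of choline-evoked depolarization via CHT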
Genome polyprotein = Genome polyprotein (dengue virus type 2, UniProt P29990); assay: Dengue-2 NS5 methyltransferase inhibitors, primary screen, biochemical, confirmation dose response (AID 588689); assay type: functional
Chain of Genome polyprotein (P29990 2492-3391 limits assumed): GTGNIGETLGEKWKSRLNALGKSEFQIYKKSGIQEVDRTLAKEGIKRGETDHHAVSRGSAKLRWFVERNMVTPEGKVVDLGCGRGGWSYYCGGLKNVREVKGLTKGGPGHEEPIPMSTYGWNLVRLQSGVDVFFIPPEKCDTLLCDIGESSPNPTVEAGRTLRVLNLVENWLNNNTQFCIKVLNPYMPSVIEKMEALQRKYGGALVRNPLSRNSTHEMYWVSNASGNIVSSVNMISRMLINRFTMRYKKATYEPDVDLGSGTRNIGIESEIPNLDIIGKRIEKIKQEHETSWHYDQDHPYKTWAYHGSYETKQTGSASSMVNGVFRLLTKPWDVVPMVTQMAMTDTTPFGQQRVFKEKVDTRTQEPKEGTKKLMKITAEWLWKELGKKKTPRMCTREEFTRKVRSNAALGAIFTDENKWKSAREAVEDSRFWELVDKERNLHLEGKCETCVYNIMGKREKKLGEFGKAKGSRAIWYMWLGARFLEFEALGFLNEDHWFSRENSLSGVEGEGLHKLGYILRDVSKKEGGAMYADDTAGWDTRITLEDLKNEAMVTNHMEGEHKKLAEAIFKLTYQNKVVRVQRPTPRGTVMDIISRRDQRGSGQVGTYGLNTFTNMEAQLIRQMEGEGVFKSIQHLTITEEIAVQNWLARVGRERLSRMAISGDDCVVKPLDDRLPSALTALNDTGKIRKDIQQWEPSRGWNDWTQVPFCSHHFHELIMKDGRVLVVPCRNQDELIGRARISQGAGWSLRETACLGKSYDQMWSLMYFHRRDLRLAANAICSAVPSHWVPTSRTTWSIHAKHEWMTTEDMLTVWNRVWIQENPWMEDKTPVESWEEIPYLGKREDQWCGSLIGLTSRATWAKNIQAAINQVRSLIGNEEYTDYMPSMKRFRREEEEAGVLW

SMILES	IC50 [6]	IC50 (Caspase-3 [7])	IC50 [8]	IC50 [9]	IC50 [11]	IC50 [12]	other results
O=C(O)c1ccc(N/N=C/c2cn(Cc3ccc(F)cc3)c3ccccc23)cc1	6.77 µM (active)	49.8 µM (active)	6.8 µM (active)	5.08 µM (active)			EC50 [1]: > 120 µM (not active); EC50 (H4): > 120 µM (not active); IC50 (Caspase-3 [2]): 89.1 µM (active); IC50 [3]: 8.78 µM (active); IC50 [4]: 7.91 µM (active); IC50 [5]: 12.4 µM (active)
COc1cc(/C=C2\SC(NS(=O)(=O)c3ccccc3)=NC2=O)c([N+](=O)[O-])cc1OC					4.17 µM (active)	8.91 µM (active)	IC50 (Aminopeptidase N): 25.5 µM (active); EC50 [10]: 25.6 µM (active); EC50 (Streptokinase A): > 150 µM (not active); EC50 (Streptococcus): > 150 µM (not active); IC50 (Genome polyprotein): 43.4 µM (active)
CC(C)(C)NCC(O)Cn1cc(C=O)c2ccccc21 (stereo not given)					0.738 µM (active)	0.113 µM (active)	
O=C(COc1ccccc1Br)c1ccc(O)cc1O					2.29 µM (active)	11.2 µM (active)	
C(=N\Nc1ccccc1)/c1c[nH]c2ccccc12	> 99 µM (inactive)	> 99 µM (inactive)	> 99 µM (inactive)	25.7 µM (active)			
